Laboratory results taken from patent publication EP4583874B1, “MULTITARGET NUCLEAR RECEPTOR LIGANDS BASED ON 2-(4-(QUINOLIN-2-YLOXY)PHENOXY)PROPANOIC ACID AND 2-(4-(QUINOXALIN-2-YLOXY)PHENOXY)PROPANOIC ACID FOR THE TREATMENT OF METABOLIC AND LIVER DISEASES” (CHARLES UNIVERSITY, FACULTY OF PHARMACY IN HRADEC KRALOVE, priority 2022, dated 2024).

Experiments:
[1] = target: T1, human PPARγ (Homo sapiens, UniProt P37231); assay: PPARγ luciferase reporter gene assay (pGAL4-PPARγ / pGL5-UAS 9x) in HepG2 cells; assay type: cell-based; details: HepG2, 24 h
T1 construct: DNA constructs encoding human LBD domains of human PPARα, PPARγ, of LXRα (pGAL4-PPARα, pGAL4-PPARγ, pGAL4-LXRα); expressed in transfected cells; host or cells: HepG2
T1 sequence (P37231 238-503 limits assumed): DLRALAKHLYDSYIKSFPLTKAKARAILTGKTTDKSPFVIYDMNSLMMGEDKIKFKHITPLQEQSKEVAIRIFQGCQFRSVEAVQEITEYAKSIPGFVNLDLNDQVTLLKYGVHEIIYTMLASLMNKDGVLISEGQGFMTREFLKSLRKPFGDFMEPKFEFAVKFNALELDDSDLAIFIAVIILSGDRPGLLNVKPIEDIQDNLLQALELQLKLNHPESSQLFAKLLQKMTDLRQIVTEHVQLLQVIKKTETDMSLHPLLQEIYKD

[2] = tested on: C57BL/6J mice fed with high-fat diet; assay: Proof-of-concept study in mice fed with high-fat diet, liver mRNA expression by RT-qPCR; assay type: in vivo; details: 10 mg/kg p.o. daily for three weeks, HFD mice
Description: The compound 37 has been applied daily (10 mg/kg) via p.o. gavage for three weeks to wild-type C57BL/6J mice fed with high-fat diet (HFD) for 24 weeks. After 24 h from the last application, mice were sacrificed, and live samples collected on dry ice for total RNA isolation. RT-qPCR experiments have been performed with TaqMan probes and expression has been quantified using a reference gene (Gapdh) and delta-delta method. Data represents fold up or downregulation in mRNA expression for tested genes related to the expression in vehicle-treated control animals. * - denotes statistically significant (p<0.05) up-regulation in animals treated with the compound of EXAMPLE 37 in comparison to animals fed with HFD only (n ≥ 10 in each groups). ^f - statistically significant effect of HFD diet on a gene expression. […]
Expressions of NR target genes mRNAs in livers of mice or in 3D cultured (spheroids) primary human hepatocytes have been performed using TaqMan probes-based RT-qPCR after isolation of total RNA by Trizol® (ThermoFischer Scientific) reagent and reverse transcription synthesis of cDNA in Quant Studio cycler. […] Delta-delta method and Gapdh or TATA-box binding protein (TBP) housekeeping genes were used for relative quantification. Data are expressed as fold up-/down-regulation compared to vehicle-treated samples/mice.

[3] = target: T2, human FXR (Homo sapiens, UniProt Q96RI1); assay: FXR responsive luciferase reporter gene assay (FXRE-luc + human FXR expression construct) in HepG2 cells; assay type: cell-based; details: HepG2, 24 h
T2 construct: expressed in transfected cells; host or cells: HepG2
T2 sequence (Q96RI1 1-486): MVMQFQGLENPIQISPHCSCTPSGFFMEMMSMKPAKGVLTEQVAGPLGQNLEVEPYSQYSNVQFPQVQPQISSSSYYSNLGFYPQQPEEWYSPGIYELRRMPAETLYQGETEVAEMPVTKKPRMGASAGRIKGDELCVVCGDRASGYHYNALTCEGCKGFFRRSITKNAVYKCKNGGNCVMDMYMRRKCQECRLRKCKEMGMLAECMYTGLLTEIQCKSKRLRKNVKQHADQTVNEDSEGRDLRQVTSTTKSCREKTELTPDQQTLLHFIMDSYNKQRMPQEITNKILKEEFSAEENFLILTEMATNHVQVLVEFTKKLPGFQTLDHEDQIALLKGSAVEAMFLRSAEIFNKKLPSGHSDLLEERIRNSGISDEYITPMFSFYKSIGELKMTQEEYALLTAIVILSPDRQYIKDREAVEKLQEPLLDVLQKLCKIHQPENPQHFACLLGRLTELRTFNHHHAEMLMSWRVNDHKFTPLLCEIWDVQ
Description: In HepG2 cells, luciferase gene reporter assays have been performed with the transiently transfected reporter gene luciferase construct with the UAS yeast binding site interacting with GAL4 protein (pGL5-UAS 9x, Promega). DNA constructs encoding human LBD domains of human PPARα, PPARγ, of LXRα (pGAL4-PPARα, pGAL4-PPARγ, pGAL4-LXRα) have been cotransfected with the reporter construct. For FXR, FXRE-luc construct with FXR response elements upstream of Firefly luciferase has been used together with an expression construct for human FXR for HepG2 cells transfection. HepG2 cells were then treated with compounds of the invention for 24 h.

[4] = target: T3, TGR5 (Homo sapiens, UniProt Q8TDU6); assay: TGR5 luciferase reporter assay; assay type: cell-based; details: relative activation to LCA 10 µM (100%), negative value indicates inverse agonism
T3 sequence (Q8TDU6 1-330): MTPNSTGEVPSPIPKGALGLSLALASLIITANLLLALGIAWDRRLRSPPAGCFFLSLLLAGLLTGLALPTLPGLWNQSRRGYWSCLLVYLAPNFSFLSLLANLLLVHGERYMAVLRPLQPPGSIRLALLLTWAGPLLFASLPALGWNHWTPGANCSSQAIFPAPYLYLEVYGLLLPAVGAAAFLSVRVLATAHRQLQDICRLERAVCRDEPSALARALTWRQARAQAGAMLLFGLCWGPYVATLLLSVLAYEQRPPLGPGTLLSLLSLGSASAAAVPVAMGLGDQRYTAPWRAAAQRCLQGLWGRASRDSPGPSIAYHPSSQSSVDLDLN

## C[C@@H](Oc1ccc(Oc2ccc3c(Cl)cccc3n2)cc1)C(=O)O [compound 37, (R)-2-(4-((5-Chloroquinolin-2-yl)oxy)phenoxy)propanoic acid]
[1]
  Emax at 10 µM: 1%
[2]
  key genes of gluconeogenesis: down-regulated
[2]; vs HFD only
  key genes involved in fatty acid (beta) oxidation (Ucp2, Hadha and Hadha) in mouse livers: up-regulates
[3]
  Emax at 10 µM: 77%
[4]
  Emax at 10 µM: 10%
